In experiment [1] the target is T1, GSPT1 protein (Homo sapiens, UniProt P15170+Q96SW2).
T1 construct: Whole cell lysates were prepared; endogenous in cells; host or cells: KG-1 cells
The experiment can be described thus: Degradation of GSPT1 in KG-1 cells (Western blot). In kind it is cell-based. The settings on record: compound concentration 200 nM, 4 h incubation. How it is done: KG-1 cells were grown in an IMDM culture medium (containing 20% FBS). After centrifugation and counting, the cell concentration was adjusted. The cells were plated onto 6-well plates at 10^6 cells/well, with 1350 μL per well. 150 μL of DMSO and the test compounds of the present disclosure (compound concentration: 200 nM) were added. The plates were incubated in an incubator at 37° C. with 5% CO2 for 4 h. The cells were centrifuged, and the culture medium was discarded. PBS was added to wash the cells and then discarded. Whole cell lysates were prepared using a protease inhibitor cocktail (100×, Fude Biological), a protein phosphatase inhibitor cocktail (100×, Fude Biological), Super Nuclease (Beyotime), and a high-intensity RIPA lysis buffer (Thermo Fisher) and placed on ice for 30 min. After centrifugation, the cell debris precipitates were discarded, and the whole cell lysate supernatants were collected and transferred to new centrifuge tubes. After a BCA protein assay, samples were prepared using a 5× loading buffer (Thermo Fisher). The samples were subjected to protein electrophoresis separation in a 4-20% precast gel (SDS-PAGE gel), transferred to a PVDF membrane, blocked with 5% NFDM/TBST at room temperature for 1 h, incubated overnight with primary antibodies at 4° C., and incubated with a secondary antibody at room temperature for 2 h the next day. Signals were detected using a MINICHEMITM imaging system.
• Anti-GSPT1: Abcam ab234433 • Anti-beta actin: Fude Biological FD0060
• Anti-rabbit peroxidase-linked secondary antibody: Fude Biological FDG007
The degradation effects of the compounds on GSPT1 protein are shown in Table 1, where A represents a GSPT1 protein degradation percentage of no less than 70%, B represents a degradation percentage of less than 70% but no less than 30%, and C represents a degradation percentage of less than 30%.
Background: In western blotting, separated proteins are transferred to a membrane and probed.

Experiment [2] concerns KG-1 cells. Kind of experiment: Antiproliferative activity against KG-1 cells (CCK8). It counts as cell-based. The following applies: Homo sapiens, 72 h incubation, CCK8 method. How it is done: KG-1 cells in the logarithmic growth phase were diluted in a culture medium (RPMI+10% FBS) and plated onto 96-well plates at 5000 cells/well, and the plates were incubated in an incubator at 37° C. with 5% CO2 for 24 h. 10 mM stock solutions of the test compounds of the present disclosure in DMSO were prepared and diluted with the culture medium to set 9 concentration gradients. 3 replicate wells were set for each concentration. After compound addition, the plates were incubated in an incubator at 37° C. with 5% CO2 for 72 h. The cell proliferation was assessed using the CCK8 method. The cell growth inhibition IC50 values of the compounds were determined using an enzyme labeling method. The IC50 values were calculated using GraphPad Prism 7 software.
The antiproliferative activity of the compounds against KG-1 cells is shown in Table 2, where A represents IC50≤30 nM, B represents 30<IC50≤300 nM, and C represents IC50>300 nM.
In general terms: Tetrazolium assays rely on reduction of a dye to a coloured formazan, in cell work by metabolically active cells.

Our source for the inhibition and IC50 values is patent publication US20260263459A1, “PHTHALAZINONE GSPT1 PROTEIN DEGRADING AGENT AND USE THEREOF” (CHINA PHARMACEUTICAL UNIVERSITY, priority 2023, published 2026).

T1 sequence (P15170 whole entry): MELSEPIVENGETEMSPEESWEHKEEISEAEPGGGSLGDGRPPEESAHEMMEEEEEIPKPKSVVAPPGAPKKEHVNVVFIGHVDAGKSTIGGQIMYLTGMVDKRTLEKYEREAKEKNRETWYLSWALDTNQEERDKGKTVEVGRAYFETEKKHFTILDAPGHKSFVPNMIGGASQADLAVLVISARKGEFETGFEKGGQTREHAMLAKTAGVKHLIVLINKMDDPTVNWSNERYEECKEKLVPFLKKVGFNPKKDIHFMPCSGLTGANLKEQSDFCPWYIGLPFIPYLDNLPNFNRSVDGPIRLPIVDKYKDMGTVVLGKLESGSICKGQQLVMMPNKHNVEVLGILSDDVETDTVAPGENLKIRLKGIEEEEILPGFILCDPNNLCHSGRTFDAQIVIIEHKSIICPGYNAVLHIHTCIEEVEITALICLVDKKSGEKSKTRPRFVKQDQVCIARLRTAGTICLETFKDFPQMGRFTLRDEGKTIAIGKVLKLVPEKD
T1 sequence (Q96SW2 whole entry): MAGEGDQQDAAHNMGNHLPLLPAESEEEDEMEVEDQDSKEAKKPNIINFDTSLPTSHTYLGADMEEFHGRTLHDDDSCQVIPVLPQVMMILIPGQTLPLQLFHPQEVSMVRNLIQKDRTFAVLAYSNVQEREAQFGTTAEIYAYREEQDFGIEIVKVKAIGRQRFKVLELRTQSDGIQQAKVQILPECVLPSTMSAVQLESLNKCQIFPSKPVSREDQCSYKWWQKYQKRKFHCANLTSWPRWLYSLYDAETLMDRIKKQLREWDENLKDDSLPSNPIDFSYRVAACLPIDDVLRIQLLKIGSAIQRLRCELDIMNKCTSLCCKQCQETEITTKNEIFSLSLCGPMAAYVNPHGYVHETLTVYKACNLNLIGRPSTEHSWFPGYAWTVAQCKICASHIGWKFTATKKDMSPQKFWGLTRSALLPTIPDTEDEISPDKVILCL
T1 sequence (Q16531 whole entry partner): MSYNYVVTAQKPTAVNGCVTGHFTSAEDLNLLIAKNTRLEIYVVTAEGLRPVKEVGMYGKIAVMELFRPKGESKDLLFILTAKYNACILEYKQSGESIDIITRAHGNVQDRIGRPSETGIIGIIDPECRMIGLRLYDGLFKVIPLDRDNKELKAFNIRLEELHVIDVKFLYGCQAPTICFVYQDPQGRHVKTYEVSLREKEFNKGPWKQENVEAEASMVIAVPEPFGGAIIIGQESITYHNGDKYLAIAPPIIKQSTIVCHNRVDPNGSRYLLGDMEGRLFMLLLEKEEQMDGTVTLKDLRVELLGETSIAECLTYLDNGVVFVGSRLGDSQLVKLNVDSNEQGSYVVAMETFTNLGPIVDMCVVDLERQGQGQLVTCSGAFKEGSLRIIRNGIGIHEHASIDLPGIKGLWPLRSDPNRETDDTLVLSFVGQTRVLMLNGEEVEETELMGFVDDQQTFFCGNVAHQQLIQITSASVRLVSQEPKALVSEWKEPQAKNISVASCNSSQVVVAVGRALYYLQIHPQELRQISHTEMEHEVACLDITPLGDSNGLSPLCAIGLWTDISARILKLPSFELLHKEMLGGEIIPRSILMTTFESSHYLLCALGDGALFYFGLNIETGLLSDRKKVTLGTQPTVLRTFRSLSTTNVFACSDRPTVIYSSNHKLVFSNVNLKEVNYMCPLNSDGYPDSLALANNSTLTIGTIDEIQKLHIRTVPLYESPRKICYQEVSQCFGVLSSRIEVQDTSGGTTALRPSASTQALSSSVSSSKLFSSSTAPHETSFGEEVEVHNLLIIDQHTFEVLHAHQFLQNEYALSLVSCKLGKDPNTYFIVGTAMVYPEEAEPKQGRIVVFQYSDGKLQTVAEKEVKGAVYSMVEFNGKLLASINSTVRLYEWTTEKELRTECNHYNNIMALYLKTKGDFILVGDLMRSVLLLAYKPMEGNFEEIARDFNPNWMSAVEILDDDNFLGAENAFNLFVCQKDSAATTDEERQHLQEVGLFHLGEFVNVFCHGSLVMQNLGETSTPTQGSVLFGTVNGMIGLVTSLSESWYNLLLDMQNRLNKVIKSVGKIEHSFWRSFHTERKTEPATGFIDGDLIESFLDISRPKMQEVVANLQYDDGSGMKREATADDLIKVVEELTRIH

For the molecule `O=C1CCC(n2ncc3cc(CNC(=O)C4COc5ccccc5C4)ccc3c2=O)C(=O)N1` (stereo not shown) [Compound T-21, N-((2-(2,6-Dioxopiperidin-3-yl)-1-oxo-1,2-dihydrophthalazin-6-yl)methyl) chromane-3-carboxamide], the inhibition (in general, the change of the read-out against control, counted positive when it falls) at 0.2 µM in experiment [1] fell in the range of 30 to 70%. In addition, the IC50 (as a rule, the point on the concentration scale where inhibition reaches its midpoint) in experiment [2] lay in the range of 30 to 300 nM.
The like results for `O=C1CCC(n2ncc3cc(CNC(=O)C4COc5ccc(F)cc5C4)ccc3c2=O)C(=O)N1` (stereo not shown) [Compound T-22, N-((2-(2,6-Dioxopiperidin-3-yl)-1-oxo-1,2-dihydrophthalazin-6-yl)methyl)-6-fluorochromane-3-carboxamide] were, in that order, 30 to 70% and not above 30 nM.
The like results for `O=C1CCC(n2ncc3cc(CNC(=O)C4COc5ccc(OC(F)(F)F)cc5C4)ccc3c2=O)C(=O)N1` (stereo not shown) [Compound T-23, N-((2-(2,6-Dioxopiperidin-3-yl)-1-oxo-1,2-dihydrophthalazin-6-yl)methyl)-6-(trifluoromethoxy) chromane-3-carboxamide] were, in that order, not below 70% and not above 30 nM.
Regarding `O=C1CCC(n2ncc3cc(CNC(=O)C4CNc5ccccc5C4)ccc3c2=O)C(=O)N1` (stereo not shown) [Compound T-24, N-((2-(2,6-Dioxopiperidin-3-yl)-1-oxo-1,2-dihydrophthalazin-6-yl)methyl)-1,2,3,4-tetrahydroquinoline-3-carboxamide], the inhibition at 0.2 µM in experiment [1] is not below 70%. In addition, in experiment [2], the IC50 is 30 to 300 nM.
Molecule `O=C1CCC(n2ncc3cc(NC(=O)C4=Cc5ccccc5OC4)ccc3c2=O)C(=O)N1` (stereo not shown) [Compound T-25, N-(2-(2,6-Dioxopiperidin-3-yl)-1-oxo-1,2-dihydrophthalazin-6-yl)-2H-chromene-3-carboxamide] showed an inhibition at 0.2 µM in experiment [1] of less than 30%. The IC50 in experiment [2] lay in the range of 30 to 300 nM.
The like results for `O=C1CCC(n2ncc3cc(NC(=O)C4=Cc5cc(F)ccc5OC4)ccc3c2=O)C(=O)N1` (stereo not shown) [Compound T-26, N-(2-(2,6-Dioxopiperidin-3-yl)-1-oxo-1,2-dihydrophthalazin-6-yl)-6-fluoro-2H-chromene-3-carboxamide] were, in that order, less than 30% and 30 to 300 nM.
For `O=C1CCC(n2ncc3cc(NC(=O)C4=Cc5cc(OC(F)(F)F)ccc5OC4)ccc3c2=O)C(=O)N1` (stereo not shown) [Compound T-27, N-(2-(2,6-Dioxopiperidin-3-yl)-1-oxo-1,2-dihydrophthalazin-6-yl)-6-(trifluoromethoxy)-2H-chromene-3-carboxamide] the same measures were less than 30% and 30 to 300 nM.
The like results for `O=C1CCC(n2ncc3cc(NC(=O)C4=Cc5cccc(OC(F)(F)F)c5OC4)ccc3c2=O)C(=O)N1` (stereo not shown) [Compound T-28, N-(2-(2,6-Dioxopiperidin-3-yl)-1-oxo-1,2-dihydrophthalazin-6-yl)-8-(trifluoromethoxy)-2H-chromene-3-carboxamide] were, in that order, 30 to 70% and 30 to 300 nM.
